Drawing on patent publication US10239843B2 (CANCER RESEARCH TECHNOLOGY LIMITED, priority 2014, dated 2019), this text covers IC50 for 31 compounds.

Read-outs that look alike come from different tables or passages of the source.

One assay concerns the target Human Full Length PARG (Homo sapiens (Human), UniProt Q86W56). As to the kind of experiment: PARG enzyme assay (TR-FRET). The format is biochemical. A general note: TR-FRET usually uses a lanthanide donor and a delayed reading to cut background.
The test system of another assay is PARG in HeLa cell line. Briefly: PARG cell assay (PAR chain immunofluorescence after MMS). Type of assay: cell-based. The conditions noted are these: HeLa cells. The method, boiled down:
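HeLa cells were dosed with compound for 1 h, then given MMS at 50 μg/mL final for a further hour. Cells were methanol-fixed, permeabilised and stained overnight at 4° C with anti-PAR monoclonal antibody. Retained nuclear PAR chains, detected by indirect immunofluorescence, indicate PARG inhibition.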

[1] abbreviates: MMS treatment, read-out: PARG Cell IC50.
Where [2] appears, read: Homo sapiens, MMS treatment, read-out: PARG Cell IC50.
[3] abbreviates: read-out: PARG Biochem IC50 Geomean.
Setting [4] is: Homo sapiens, MMS 50 μg/mL, read-out: PARG Cell IC50 Geomean.
Setting [5] is: MMS 50 μg/mL, read-out: PARG Cell IC50 Geomean.

Chain of Human Full Length PARG (Q86W56 whole entry): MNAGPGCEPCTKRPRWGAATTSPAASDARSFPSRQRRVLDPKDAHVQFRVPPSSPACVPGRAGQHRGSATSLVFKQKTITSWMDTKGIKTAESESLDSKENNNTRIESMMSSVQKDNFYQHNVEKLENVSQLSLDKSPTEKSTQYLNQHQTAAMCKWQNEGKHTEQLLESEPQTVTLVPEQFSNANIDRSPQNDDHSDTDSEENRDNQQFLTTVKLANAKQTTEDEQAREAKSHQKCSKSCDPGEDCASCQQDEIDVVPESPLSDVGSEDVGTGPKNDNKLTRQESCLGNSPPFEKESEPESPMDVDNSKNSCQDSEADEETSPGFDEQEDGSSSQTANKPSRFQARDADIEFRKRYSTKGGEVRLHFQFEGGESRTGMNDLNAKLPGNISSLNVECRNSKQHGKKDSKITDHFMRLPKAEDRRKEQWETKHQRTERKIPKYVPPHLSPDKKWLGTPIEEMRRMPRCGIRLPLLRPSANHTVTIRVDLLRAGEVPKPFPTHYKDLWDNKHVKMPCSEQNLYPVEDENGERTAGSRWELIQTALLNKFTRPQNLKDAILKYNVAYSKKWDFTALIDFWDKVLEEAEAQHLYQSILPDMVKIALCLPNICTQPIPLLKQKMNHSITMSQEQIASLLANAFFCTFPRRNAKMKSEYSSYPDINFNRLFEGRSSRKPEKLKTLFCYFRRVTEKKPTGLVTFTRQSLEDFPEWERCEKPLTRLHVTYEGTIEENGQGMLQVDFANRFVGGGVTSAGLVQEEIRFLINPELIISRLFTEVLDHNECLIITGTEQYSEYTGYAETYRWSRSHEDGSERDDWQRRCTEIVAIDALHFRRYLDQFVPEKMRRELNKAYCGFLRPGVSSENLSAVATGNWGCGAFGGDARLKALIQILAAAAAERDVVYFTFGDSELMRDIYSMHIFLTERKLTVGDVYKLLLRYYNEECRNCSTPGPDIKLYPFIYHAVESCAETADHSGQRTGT

Consider `Cc1cc(Cn2c(=O)c3cc(S(=O)(=O)NC4(CF)CC4)ccc3n(Cc3ncn(C)n3)c2=O)on1` [Example 553, N-[1-(Fluoromethyl)cyclopropyl]-3-[(3-methylisoxazol-5-yl)methyl]-1-[(1-methyl-1,2,4-triazol-3-yl)methyl]-2,4-dioxo-quinazoline-6-sulfonamide], for which the 50% inhibitory concentration (IC50) (as a rule, the concentration needed to halve the response being measured) was determined as 451 nM at Human Full Length PARG (read-out: PARG Biochem IC50) and 1510 nM in the assay with PARG in HeLa cell line (setting [1]).

`Cc1cc(Cn2c(=O)c3cc(S(=O)(=O)NC4(C)CC4)ccc3n(CC(=O)N3CCC3)c2=O)on1` [Example 414, 1-[2-(Azetidin-1-yl)-2-oxo-ethyl]-N-(1-methylcyclopropyl)-3-[(3-methylisoxazol-5-yl)methyl]-2,4-dioxo-quinazoline-6-sulfonamide]: the IC50 at Human Full Length PARG (read-out: PARG Biochem IC50) was determined as 2080 nM; in the assay with PARG in HeLa cell line (setting [1]) it was 9220 nM.

Consider `Cn1cc(Cn2c(=O)c3cc(S(=O)(=O)NC4(C(F)F)CC4)ccc3n(Cc3ccc(F)cc3)c2=O)cn1` [Example 460, N-[1-(Difluoromethyl)cyclopropyl]-1-[(4-fluorophenyl)methyl]-3-[(1-methylpyrazol-4-yl)methyl]-2,4-dioxo-quinazoline-6-sulfonamide], for which the results for the IC50 at Human Full Length PARG (read-out: PARG Biochem IC50) and in the assay on PARG in HeLa cell line (setting [2]) were 333 nM and 487 nM, respectively.

`CCn1cncc1Cn1c(=O)n(Cc2cnn(C)c2)c(=O)c2cc(S(=O)(=O)NC3(CF)CC3)ccc21` [Example 576, 1-[(3-Ethylimidazol-4-yl)methyl]-N-[1-(fluoromethyl)cyclopropyl]-3-[(1-methylpyrazol-4-yl)methyl]-2,4-dioxo-quinazoline-6-sulfonamide]: the IC50 at Human Full Length PARG (read-out: PARG Biochem IC50) was found to be 42 nM; in the assay with PARG in HeLa cell line (setting [2]) it was 2160 nM.

Take `CCCn1c(=O)n(Cc2cnn(C)c2)c(=O)c2cc(S(=O)(=O)NC3(CF)CC3)ccc21` [Example 597, N-[1-(Fluoromethyl)cyclopropyl]-3-[(1-methylpyrazol-4-yl)methyl]-2,4-dioxo-1-propyl-quinazoline-6-sulfonamide]: the IC50 on Human Full Length PARG (read-out: PARG Biochem IC50) turned out to be 100 nM; with PARG in HeLa cell line (setting [2]), 86 nM.

As to `Cc1cncc(Cn2c(=O)n(Cc3cnn(C)c3)c(=O)c3cc(S(=O)(=O)NC4(CF)CC4)ccc32)c1` [Example 539, N-[1-(Fluoromethyl)cyclopropyl]-3-[(1-methylpyrazol-4-yl)methyl]-1-[(5-methyl-3-pyridyl)methyl]-2,4-dioxo-quinazoline-6-sulfonamide], the IC50 at Human Full Length PARG (read-out: PARG Biochem IC50) came out at 73 nM; in the assay on PARG in HeLa cell line (setting [2]), 187 nM.

In the case of `Cc1cc(Cn2c(=O)c3cc(S(=O)(=O)NC4(C)CC4)ccc3n(CCN3CCOCC3)c2=O)on1` [Example 276], the values for the IC50 on Human Full Length PARG (setting [3]) and with PARG in HeLa cell line (setting [4]) were 255 nM and 536 nM, respectively.

`COCCn1c(=O)n(Cc2cnn(C)c2)c(=O)c2cc(S(=O)(=O)NC3(CF)CC3)ccc21` [Example 462, N-[1-(Fluoromethyl)cyclopropyl]-1-(2-methoxyethyl)-3-[(1-methylpyrazol-4-yl)methyl]-2,4-dioxo-quinazoline-6-sulfonamide]: the figures for the IC50 at Human Full Length PARG (read-out: PARG Biochem IC50) and with PARG in HeLa cell line (setting [2]) were 244 nM and 322 nM, respectively.

As to `Cc1nnc(Cn2c(=O)[nH]c3ccc(S(=O)(=O)NC4(CF)CC4)cc3c2=O)s1` [Example 601, N-[1-(Fluoromethyl)cyclopropyl]-3-[(5-methyl-1,3,4-thiadiazol-2-yl)methyl]-2,4-dioxo-1H-quinazoline-6-sulfonamide], the IC50 at Human Full Length PARG (read-out: PARG Biochem IC50) came to 710 nM; in the assay on PARG in HeLa cell line (setting [2]), 13500 nM.

Turning to `Cc1nc(C)c(Cn2c(=O)n(Cc3cnn(C)c3)c(=O)c3cc(S(=O)(=O)NC4(C)CC4)ccc32)s1` [Example 170], the IC50 came out at 6 nM on Human Full Length PARG (setting [3]) and 20 nM in the assay on PARG in HeLa cell line (setting [4]).

`Cn1cc(Cn2c(=O)c3cc(S(=O)(=O)NC4(CF)CC4)ccc3n(C)c2=O)cn1` [Example 408, N-[1-(Fluoromethyl)cyclopropyl]-1-methyl-3-[(1-methylpyrazol-4-yl)methyl]-2,4-dioxo-quinazoline-6-sulfonamide]: the IC50 is 648 nM at Human Full Length PARG (read-out: PARG Biochem IC50) and 287 nM in the assay with PARG in HeLa cell line (setting [2]).

Regarding `Cn1cc(Cn2c(=O)[nH]c3ccc(S(=O)(=O)NC4(C=O)CC4)cc3c2=O)cn1` [Example 479, N-(1-Formylcyclopropyl)-3-[(1-methylpyrazol-4-yl)methyl]-2,4-dioxo-1H-quinazoline-6-sulfonamide], the IC50 at Human Full Length PARG (read-out: PARG Biochem IC50) was determined as 10200 nM; in the assay with PARG in HeLa cell line (setting [2]), 3650 nM.

For the compound `Cc1cc(Cn2c(=O)c3cc(S(=O)(=O)NC4(C)CC4)ccc3n(CCCO)c2=O)on1` [Example 407, 1-(3-Hydroxypropyl)-N-(1-methylcyclopropyl)-3-[(3-methylisoxazol-5-yl)methyl]-2,4-dioxo-quinazoline-6-sulfonamide], the values for the IC50 at Human Full Length PARG (read-out: PARG Biochem IC50) and in the assay on PARG in HeLa cell line (setting [2]) were 394 nM and 625 nM, respectively.

Take `Cc1cc(Cn2c(=O)n(Cc3cnn(C)c3)c(=O)c3cc(S(=O)(=O)NC4(C#N)CC4)c(F)cc32)on1` [Example 404, N-(1-Cyanocyclopropyl)-7-fluoro-1-[(3-methylisoxazol-5-yl)methyl]-3-[(1-methylpyrazol-4-yl)methyl]-2,4-dioxo-quinazoline-6-sulfonamide]: the values for the IC50 on Human Full Length PARG (read-out: PARG Biochem IC50) and in the assay on PARG in HeLa cell line (setting [2]) were 71 nM and 3860 nM, respectively.

On to `Cn1c(=O)n(Cc2cnc(NC(=O)OC(C)(C)C)s2)c(=O)c2cc(S(=O)(=O)NC3(C)CC3)ccc21` [Example 214], for which the IC50 at Human Full Length PARG (setting [3]) came out at 411 nM; with PARG in HeLa cell line (setting [5]) it was 3470 nM.

`Cc1cc(Cn2c(=O)n(CC#N)c(=O)c3cc(S(=O)(=O)NC4(C)CC4)ccc32)n(C)n1` [Example 192]: the IC50 at Human Full Length PARG (setting [3]) was 274 nM; in the assay with PARG in HeLa cell line (setting [5]) it was 1100 nM.

With `Cc1cc(Cn2c(=O)c3cc(S(=O)(=O)NC4(C)CC4)ccc3n(Cc3cc(C(F)(F)F)nn3C)c2=O)on1` [Example 230], the figures for the IC50 at Human Full Length PARG (setting [3]) and in the assay with PARG in HeLa cell line (setting [5]) were 127 nM and 213 nM, respectively.

Turning to `CSCCn1c(=O)n(Cc2cc(C)no2)c(=O)c2cc(S(=O)(=O)NC3(C)CC3)ccc21` [Example 362], the IC50 at Human Full Length PARG (setting [3]) is 331 nM; in the assay with PARG in HeLa cell line (setting [4]), 126 nM.

As for `Cc1cc(Cn2c(=O)n(Cc3cnn(C)c3)c(=O)c3cc(S(=O)(=O)NC4(CF)CC4)ccc32)sn1` [Example 591, N-[1-(Fluoromethyl)cyclopropyl]-1-[(3-methylisothiazol-5-yl)methyl]-3-[(1-methylpyrazol-4-yl)methyl]-2,4-dioxo-quinazoline-6-sulfonamide], the IC50 is 30 nM on Human Full Length PARG (read-out: PARG Biochem IC50) and 32 nM in the assay with PARG in HeLa cell line (setting [2]).

For the compound `CC(C)n1c(=O)n(Cc2cnn(C)c2)c(=O)c2cc(S(=O)(=O)NC3(C)CC3)ccc21` [Example 292], the IC50 on Human Full Length PARG (setting [3]) is 341 nM; in the assay with PARG in HeLa cell line (setting [4]), 221 nM.

On to `C#CC1(NS(=O)(=O)c2ccc3c(c2)c(=O)n(Cc2cnn(C)c2)c(=O)n3CC2CC2)CC1` [Example 432, 1-(Cyclopropylmethyl)-N-(1-ethynylcyclopropyl)-3-[(1-methylpyrazol-4-yl)methyl]-2,4-dioxo-quinazoline-6-sulfonamide], for which the IC50 on Human Full Length PARG (read-out: PARG Biochem IC50) is 486 nM; in the assay with PARG in HeLa cell line (setting [1]) it was 261 nM.

Consider `Cn1cc(Cn2c(=O)c3cc(S(=O)(=O)NC4(C)CC4)c(F)cc3n(CC3CC3)c2=O)cn1` [Example 388], for which the IC50 on Human Full Length PARG (setting [3]) was 25 nM; in the assay with PARG in HeLa cell line (setting [4]) it was 31 nM.

On to `Cc1ncc(Cn2c(=O)c3cc(S(=O)(=O)NC4(C#N)CC4)ccc3n(Cc3sc(C)nc3C)c2=O)s1` [Example 401, N-(1-Cyanocyclopropyl)-1-[(2,4-dimethylthiazol-5-yl)methyl]-3-[(2-methylthiazol-5-yl)methyl]-2,4-dioxo-quinazoline-6-sulfonamide], for which the IC50 on Human Full Length PARG (read-out: PARG Biochem IC50) stood at 8 nM; in the assay on PARG in HeLa cell line (setting [2]) it was 101 nM.

As to `Cc1cc(Cn2c(=O)c3cc(S(=O)(=O)NC4(C)CC4)ccc3n(CC3CCCCC3)c2=O)on1` [Example 290], the values for the IC50 at Human Full Length PARG (setting [3]) and with PARG in HeLa cell line (setting [4]) were 497 nM and 260 nM, respectively.

Turning to `Cn1c(=O)n(Cc2cnn(CC#N)c2)c(=O)c2cc(S(=O)(=O)NC3(C)CC3)ccc21` [Example 217], the IC50 at Human Full Length PARG (setting [3]) turned out to be 365 nM; in the assay on PARG in HeLa cell line (setting [4]) it was 529 nM.

As for `CCOC(=O)Cn1c(=O)c2cc(S(=O)(=O)NC3(C)CC3)ccc2n(C)c1=O` [Example 468, Ethyl 2-[1-methyl-6-[(1-methylcyclopropyl)sulfamoyl]-2,4-dioxo-quinazolin-3-yl]acetate], the IC50 at Human Full Length PARG (read-out: PARG Biochem IC50) was determined as 3980 nM; in the assay on PARG in HeLa cell line (setting [2]) it was 1120 nM.

For `Cc1cc(Cn2c(=O)c3cc(S(=O)(=O)NC4(C)CC4)ccc3n(CC3(F)COC3)c2=O)on1` [Example 350], the concentration for half-maximal inhibition (IC50) is 320 nM on Human Full Length PARG (setting [3]) and 341 nM in the assay on PARG in HeLa cell line (setting [4]).

For the compound `CNC(=O)c1cc(S(=O)(=O)NC2(C)CC2)cc2c(=O)n(Cc3cnn(C)c3)c(=O)[nH]c12` [Example 450, N-Methyl-6-[(1-methylcyclopropyl)sulfamoyl]-3-[(1-methylpyrazol-4-yl)methyl]-2,4-dioxo-1H-quinazoline-8-carboxamide], the results for the IC50 on Human Full Length PARG (read-out: PARG Biochem IC50) and with PARG in HeLa cell line (setting [2]) were 213 nM and 2520 nM, respectively.

As for `Cc1ncc(Cn2c(=O)n(Cc3cnn(C)c3)c(=O)c3cc(S(=O)(=O)NC4(CF)CC4)ccc32)o1` [Example 548, N-[1-(Fluoromethyl)cyclopropyl]-1-[(2-methyloxazol-5-yl)methyl]-3-[(1-methylpyrazol-4-yl)methyl]-2,4-dioxo-quinazoline-6-sulfonamide], the IC50 came to 34 nM on Human Full Length PARG (read-out: PARG Biochem IC50) and 63 nM with PARG in HeLa cell line (setting [2]).

In the case of `Cn1cc(Cc2cc3cc(S(=O)(=O)NC4(C)CC4)ccc3n(C)c2=O)cn1` [Example 491, 1-Methyl-N-(1-methylcyclopropyl)-3-[(1-methylpyrazol-4-yl)methyl]-2-oxo-quinoline-6-sulfonamide], the IC50 on Human Full Length PARG (read-out: PARG Biochem IC50) amounted to 3440 nM; in the assay on PARG in HeLa cell line (setting [1]) it was 1790 nM.

As for `CC(C)Cn1c(=O)n(Cc2cnn(C)c2)c(=O)c2cc(S(=O)(=O)NC3(CF)CC3)ccc21` [Example 549, N-[1-(Fluoromethyl)cyclopropyl]-1-isobutyl-3-[(1-methylpyrazol-4-yl)methyl]-2,4-dioxo-quinazoline-6-sulfonamide], the values for the IC50 at Human Full Length PARG (read-out: PARG Biochem IC50) and with PARG in HeLa cell line (setting [1]) were 140 nM and 91 nM, respectively.
